We go through 21 compounds from US7618990B2, “Oxazolidone derivatives as PR modulators” (Wyeth, priority 2006, dated 2009).

For series [1], the system named is alkaline phosphatase activity in T47D cells. The series can be described thus: Effects of progestins and antiprogestins on alkaline phosphatase activity in T47D cells (antagonist mode). The series is classed as cell-based. The conditions noted are these: Homo sapiens, in the presence of 1 nM progesterone, 24 h, read-out: T47D Alkaline Phosphatase Activity IC50 (nM) or % inhibition.

The target in series [2] is T1, progesterone receptor (PR) (Homo sapiens, UniProt P06401).
T1 construct: in live, intact (whole) cells using the human breast carcinoma T47D cell line; endogenous in cells; host or cells: T47D human breast carcinoma cells
T1 sequence (P06401 1-933): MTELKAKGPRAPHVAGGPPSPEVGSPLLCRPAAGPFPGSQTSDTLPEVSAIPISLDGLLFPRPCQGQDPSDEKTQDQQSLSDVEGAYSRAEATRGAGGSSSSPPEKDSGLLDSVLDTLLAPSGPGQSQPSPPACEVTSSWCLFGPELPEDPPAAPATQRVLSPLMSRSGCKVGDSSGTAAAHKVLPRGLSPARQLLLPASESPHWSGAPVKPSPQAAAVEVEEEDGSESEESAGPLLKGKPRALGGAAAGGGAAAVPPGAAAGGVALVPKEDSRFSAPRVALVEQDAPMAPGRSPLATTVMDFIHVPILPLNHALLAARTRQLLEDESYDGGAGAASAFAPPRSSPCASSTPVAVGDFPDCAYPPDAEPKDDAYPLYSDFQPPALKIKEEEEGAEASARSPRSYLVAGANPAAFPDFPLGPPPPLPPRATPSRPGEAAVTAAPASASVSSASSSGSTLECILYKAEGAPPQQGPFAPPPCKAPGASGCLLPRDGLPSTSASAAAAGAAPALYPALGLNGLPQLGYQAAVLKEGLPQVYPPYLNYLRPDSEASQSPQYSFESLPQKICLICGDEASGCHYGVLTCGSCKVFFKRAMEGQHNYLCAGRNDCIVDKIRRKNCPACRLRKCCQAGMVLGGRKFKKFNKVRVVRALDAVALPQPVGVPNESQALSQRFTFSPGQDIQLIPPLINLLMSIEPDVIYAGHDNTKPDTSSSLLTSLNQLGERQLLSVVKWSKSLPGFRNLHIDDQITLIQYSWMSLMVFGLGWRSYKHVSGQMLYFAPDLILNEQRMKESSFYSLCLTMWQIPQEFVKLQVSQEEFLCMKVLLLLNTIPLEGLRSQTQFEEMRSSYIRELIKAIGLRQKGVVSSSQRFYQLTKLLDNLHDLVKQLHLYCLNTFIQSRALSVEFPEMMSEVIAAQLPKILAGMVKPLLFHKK
The series can be described thus: Progesterone receptor whole cell competition binding assay using T47D cells. The conditions noted are these: intact T47D cells, 3 nM 3H-progesterone, 3 h at 37° C. As to the method:
(2) Progesterone Receptor Whole Cell Competition Binding Assay Using T47D Cells
PURPOSE: To evaluate the progesterone receptor (PR) binding activity of progestins or antiprogestins in live, intact (whole) cells using the human breast carcinoma T47D cell line and ^3H-progesterone as the labeled ligand.
Culture Medium: • 5% RC: phenol red free DMEM:F12 (1:1) (GIBCO, BRL) supplemented with 5% (v/v) charcoal stripped fetal bovine serum (not heat-inactivated), 100 U/mL penicillin, 100 μg/mL streptomycin, and 2 mM the GlutaMax™ reagent (GIBCO, BRL). • 10% RC: Same as above supplemented with 10% (v/v) FBS. • ^3H-Progesterone: Perkin Elmer Life Science, cat# NET-381 (typically around 102 Ci/mmol)
T47D cells were maintained in 10% RC media at 37° C. in a 5% CO2/humidified atmosphere and were split twice weekly for proper response. Cells were plated in 10% RC the day before binding assay at 50,000 cells per well in the white, clear bottom plates purchased through VWR or Perkin Elmer.
Cells plated the day prior to the assay in white clear bottom plates were used. A master compound plate was set up containing control and test compounds at 20× final desired concentration for the competition binding. A typical dose range of 20× concentrations were (in nM); 200,000; 20,000; 6000; 2000; 600; 200; 20; and 2. Final concentrations were (in nM); 10,000; 1000; 300; 100; 30; 10; 1; 0.1. Control compounds were typically run 10-fold lower than this and include a 0, or vehicle, control well. A stock of 60 nM ^3H-progesterone (20×) were also prepared at a volume needed of 10 μL per well.
Media on cells were replaced with 180 μL of 5% RC. Ten microliters (10 μL) of 60 nM ^3H-progesterone (for final concentration of 3 nM) was added immediately, followed by 10 μL of 20× test or control compounds. Compounds were incubated for 3 h at 37° C. (A time course study found no difference between 2 and 4 h incubation.)
Following incubation, media was carefully removed and cells were washed 3× with 200 μL 5% RC each wash. Fifty microliters of liquid scintillation cocktail was added and the plates were shaken vigorously for a minimum of 15 min. Plates were read on the Wallac Microbeta® 1450 plate reader.
Square root-transformed data were used for analysis of variance and calculation of IC50. SAS software (SAS Institute, Inc.) was used for all the statistical analysis.
Progesterone was used as a reference progestin and RU486 as a reference antiprogestin.

`CC[C@@H]1COC(=O)N1c1nc(-c2ccc(Br)cc2)cs1` [Example 9, (4R)-3-[4-(4-Bromophenyl)-1,3-thiazol-2-yl]-4-ethyl-1,3-oxazolidin-2-one] had a melting point of 134 to 135 °C. For the same compound, the IC50 in series [1] came out at 32.9 nM. The compound also showed a Ki in series [2] of 0.0621 µM.
Compound `CC[C@@H]1COC(=O)N1c1nc(-c2ccc(C#N)cc2)cs1` [Example 10, 4-{2-[(4R)-4-Ethyl-2-oxo-1,3-oxazolidin-3-yl]-1,3-thiazol-4-yl}benzonitrile] showed a melting point of 153 to 157 °C. Further, the IC50 in series [1] is 12.8 nM. The compound further came in with a Ki in series [2] of 0.0233 µM.
In the same order, the values of `CCC[C@H]1COC(=O)N1c1nc(-c2ccc(C#N)cc2)cs1` [Example 23, 4-{2-[(4S)-2-oxo-4-propyl-1,3-oxazolidin-3-yl]-1,3-thiazol-4-yl}benzonitrile] are 132 to 135 °C, 28.1 nM and 0.0412 µM.
In the same order, the values of `O=C1OCC2(CCCC2)N1c1nc(-c2ccc(Br)cc2)cs1` [Example 34, 1-[4-(4-Bromophenyl)-1,3-thiazol-2-yl]-3-oxa-1-azaspiro[4.4]nonan-2-one] are 138 to 139 °C, 95.3 nM and 0.529 µM.
The compound `O=C1OC[C@@H](c2ccccc2)N1c1nc(-c2ccc(Br)cc2)cs1` [Example 35, (4R)-3-[4-(4-Bromophenyl)-1,3-thiazol-2-yl]-4-phenyl-1,3-oxazolidin-2-one] had a melting point of 218 to 220 °C. In addition, the IC50 in series [1] turned out to be 204 nM. The affinity in series [2] corresponds to a Ki of 0.713 µM.
In the same order, the values of `O=C1OC[C@@H](Cc2ccccc2)N1c1nc(-c2ccc(Br)cc2)cs1` [Example 36, (4R)-4-Benzyl-3-[4-(4-bromophenyl)-1,3-thiazol-2-yl]-1,3-oxazolidin-2-one] are 177 to 179 °C, 346 nM and 0.968 µM.
`CC(C)C[C@H]1COC(=O)N1c1nc(-c2ccc(Br)cc2)cs1` [Example 37, (4S)-3-[4-(4-Bromophenyl)-1,3-thiazol-2-yl]-4-isobutyl-1,3-oxazolidin-2-one] displayed a melting point of 144 to 146 °C. Moreover, the IC50 in series [1] worked out at 359 nM. Further, affinity in series [2] was put at a Ki of 0.566 µM.
In the same order, the values of `CC(C)C1COC(=O)N1c1nc(-c2ccc(Br)cc2)cs1` (stereo not drawn) [Example 38, 3-[4-(4-Bromophenyl)-1,3-thiazol-2-yl]-4-isopropyl-1,3-oxazolidin-2-one] are 174 to 176 °C, 75.6 nM and 0.108 µM.
`CCCC1COC(=O)N1c1nc(-c2ccc(C#N)cc2)cs1` (stereo not drawn) [Example 40, 4-[2-(2-Oxo-4-propyl-1,3-oxazolidin-3-yl)-1,3-thiazol-4-yl]benzonitrile] returned a melting point of 132 to 134 °C. The IC50 in series [1] is 9.9 nM. Further, affinity in series [2] was put at a Ki of 0.042 µM.
The compound `CC1CN(c2nc(-c3ccc(C#N)cc3)cs2)C(=O)O1` (stereo not drawn) [Example 41, 4-[2-(5-Methyl-2-oxo-1,3-oxazolidin-3-yl)-1,3-thiazol-4-yl]benzonitrile] came in with a melting point of 214 to 216 °C. For the same compound, in series [1], the IC50 was 48.3 nM. In addition, the affinity in series [2], expressed as Ki, was 0.284 µM.
In the same order, the values of `CCC1CN(c2nc(-c3ccc(C#N)cc3)cs2)C(=O)O1` (stereo not drawn) [Example 42, 4-[2-(5-Ethyl-2-oxo-1,3-oxazolidin-3-yl)-1,3-thiazol-4-yl]benzonitrile] are 168 to 170 °C, 117 nM and 0.7 µM.
In the same order, the values of `CCCCC1COC(=O)N1c1nc(-c2ccc(C#N)cc2)cs1` (stereo not drawn) [Example 48, 4-[2-(4-Butyl-2-oxo-1,3-oxazolidin-3-yl)-1,3-thiazol-4-yl]benzonitrile] are 134 to 137 °C, 23.3 nM and 0.128 µM.
In the same order, the values of `CCC1COC(=O)N1c1nc(-c2ccc(Br)cc2)cs1` (stereo not drawn) [Example 49, 3-[4-(4-Bromophenyl)-1,3-thiazol-2-yl]-4-ethyl-1,3-oxazolidin-2-one] are 148.5 °C, 39 nM and 0.068 µM.
Compound `CC1COC(=O)N1c1nc(-c2ccc(Br)cc2)cs1` (stereo not drawn) [Example 50, 3-[4-(4-Bromophenyl)-1,3-thiazol-2-yl]-4-methyl-1,3-oxazolidin-2-one] had a melting point of 189 to 190 °C. Further, the IC50 in series [1] came out at 17.7 nM. For the same compound, in series [2], the Ki came out at 0.0366 µM.
Turning to `CC1COC(=O)N1c1nc(-c2ccc(C#N)cc2)cs1` (stereo not drawn) [Example 51, 4-[2-(4-Methyl-2-oxo-1,3-oxazolidin-3-yl)-1,3-thiazol-4-yl]benzonitrile], the melting point is 215 to 216 °C. The IC50 in series [1] came out at 16.1 nM. In series [2], this compound came in with a Ki of 0.0426 µM.
In the same order, the values of `CC1(C)COC(=O)N1c1nc(-c2ccc(C#N)cc2)c(F)s1` [Example 58, 4-[2-(4,4-dimethyl-2-oxo-1,3-oxazolidin-3-yl)-5-fluoro-1,3-thiazol-4-yl]benzonitrile] are 177 to 178 °C, 4 nM and 0.0161 µM.
In the same order, the values of `O=C1OCC(C(F)(F)F)N1c1nc(-c2ccc(Br)cc2)cs1` (stereo not drawn) [Example 64, 3-[4-(4-Bromophenyl)-1,3-thiazol-2-yl]-4-(trifluoromethyl)-1,3-oxazolidin-2-one] are 154 to 156 °C, 291 nM and 0.234 µM.
`N#Cc1ccc(-c2csc(N3C(=O)OC[C@H]3C(F)(F)F)n2)cc1` [Example 65, 4-{2-[(4S)-2-Oxo-4-(trifluoromethyl)-1,3-oxazolidin-3-yl]-1,3-thiazol-4-yl}benzonitrile] registered a melting point of 208 to 209 °C. Moreover, in series [1], the half-inhibitory concentration (IC50) was found to be 43.2 nM. The same compound yielded a Ki in series [2] of 0.0603 µM.
In the same order, the values of `N#Cc1ccc(-c2csc(N3C(=O)OC[C@@H]3C(F)(F)F)n2)cc1` [Example 66, 4-{2-[(4R)-2-oxo-4-(trifluoromethyl)-1,3-oxazolidin-3-yl]-1,3-thiazol-4-yl}benzonitrile] are 208 to 209 °C, 482 nM and 0.212 µM.
The compound `O=C1OC[C@@H](CF)N1c1nc(-c2ccc(Br)cc2)cs1` [Example 73, (4S)-3-[4-(4-Bromophenyl)-1,3-thiazol-2-yl]-4-(fluoromethyl)-1,3-oxazolidin-2-one] came in with a melting point of 148 to 150 °C. Besides, the IC50 in series [1] turned out to be 21.4 nM. The same compound came in with an inhibition constant Ki in series [2] of 0.0315 µM.
In the same order, the values of `N#Cc1ccc(-c2csc(N3C(=O)OC[C@H]3CF)n2)cc1` [Example 74, 4-{2-[(4S)-4-(Fluoromethyl)-2-oxo-1,3-oxazolidin-3-yl]-1,3-thiazol-4-yl}benzonitrile] are 195 to 196 °C, 19.8 nM and 0.0451 µM.
